What is called MIC99 is an inhibitory concentration at the 99% level, which refers to growth in some studies and to a panel of isolates in others. Read a low MIC99 as greater potency. By MIC90 is commonly meant the lowest concentration that inhibits either 90% of growth or 90% of the strains tested, depending on the study. A higher MIC90 goes with weaker potency.

Values after ≈ are worked out from the molar mass of the structure shown. Numbered stars: 1 amine (or outer) side, 2 acyl side, 3 side chain; on linkers, the order of the positions; unused ones are H or OH. Square brackets hold non-standard residues; d marks the D form. Peptide text beside a SMILES is read from it. ξ: configuration not given here. X1 = CC[C@H](C)[C@@H](C(=O)[*:2])N(O)[*:1]; ξPiz(1,6-dehydro) = O=C(O)C1CCC=NN1; ξN(OH)Ile(3ξ) = CCC(C)C(NO)C(=O)O; dNMeF = CN[C@H](Cc1ccccc1)C(=O)O; NMeF = CN[CH](Cc1ccccc1)C(=O)O; X2 = O=C(C1CCCNN1[*:1])[*:2]; Pip = O=C(O)[C@@H]1CCCCN1; dPip = O=C(O)[C@H]1CCCCN1

The text below walks through data of publication PMC6022709 (BMC Research Notes, 2018).

For one test, the system named is M. tuberculosis WT. It counts as cell-based, Mycobacterium tuberculosis.
For test [1], the system named is M. tuberculosis H37Rv-LP (ATCC 25618) expressing a red fluorescent protein. As to conditions: for MIC90: H37Rv.
Test [2] shares this test system. Description: microbe, parasite or virus in culture. The conditions noted are these: Mycobacterium tuberculosis.

`CC(C)CC1C(=O)N2NCCCC2C(=O)N2NCCCC2C(=O)N(C)C(Cc2ccccc2)C(=O)N2CCCC2C(=O)NC(Cc2ccccc2)C(=O)N1O` (stereo not drawn) [Compound 1, cyclo[N-(Me)Phe-Pro-Phe-N-(OH)Leu-Piz-Piz]] gave an MIC99 against M. tuberculosis WT of 1.6 µM (≈ 1.21 µg/mL). In test [1], this compound yielded an MIC90 of 2.3 ± 0.5 µM (≈ 1.75 µg/mL).
Consider `CCC(C)C1C(=O)N2NCCCC2C(=O)N2NCCCC2C(=O)N(C)C(Cc2ccccc2)C(=O)N2CCCC2C(=O)NC(Cc2ccccc2)C(=O)N1O` (stereo not drawn) [Compound 2] (cyclo([ξN(OH)Ile(3ξ)][X2][X2][NMeF]PF); configuration not given here), for which the MIC90 in test [1] is on record as 2.8 ± 0.8 µM (≈ 2.12 µg/mL).
As for `CC(C)CC1C(=O)N2NCCCC2C(=O)N2NCCCC2C(=O)N(C)C(Cc2ccccc2)C(=O)N2CCCC2C(=O)NC(C(C)C)C(=O)N1O` (stereo not drawn) [Compound 3], the MIC99 against M. tuberculosis WT is on record as 0.8 µM (≈ 0.569 µg/mL). The same compound showed an MIC90 in test [1] of 8.9 ± 1.8 µM (≈ 6.33 µg/mL).
`CCC(C)C1C(=O)N2CCCC2C(=O)NC(CC(C)C)C(=O)N(O)C(CC(C)C)C(=O)N2NCCCC2C(=O)N2NCCCC2C(=O)N1C` (stereo not drawn) [Compound 4]: in test [1], the MIC90 worked out at 7.3 ± 1.9 µM (≈ 5.04 µg/mL).
`CC[C@H](C)[C@H]1C(=O)N2NCCC[C@@H]2C(=O)N2NCCC[C@H]2C(=O)N(C)[C@H](Cc2ccccc2)C(=O)N2CCC[C@H]2C(=O)N[C@H](Cc2ccccc2)C(=O)N1CC(C)=O` [Compound 5] had an MIC90 in test [1] of 8.2 ± 1.2 µM (≈ 6.55 µg/mL).
Regarding `CCC(C)C1NC(=O)C(Cc2ccccc2)NC(=O)C2CCCN2C(=O)C(Cc2ccccc2)N(C)C(=O)C2CCC=NN2C(=O)C2CCC=NN2C1=O` (stereo not drawn) [Compound 7] (cyclo([ξPiz(1,6-dehydro)][ξPiz(1,6-dehydro)][NMeF]PFI); configuration not given here), the MIC90 in test [1] is > 20 µM.
For `CC[C@H](C)[C@H]1C(=O)N2CCCC[C@@H]2C(=O)N2CCCC[C@H]2C(=O)N(C)[C@H](Cc2ccccc2)C(=O)N2CCC[C@H]2C(=O)N[C@H](Cc2ccccc2)C(=O)N1O` [Compound 15] (cyclo([dNMeF]P[dF][X1][dPip][Pip])), in test [1], the “anti-tubercular activity (in words)” value is given as “loss of anti-tubercular activity” and the MIC90 was > 20 µM.
As to `CCCC1C(=O)N2CCCC2C(=O)NC(CC(C)C)C(=O)N(O)C(CC(C)C)C(=O)N2NCCCC2C(=O)N2NCCCC2C(=O)N1C` (stereo not drawn) [Compound 16], in test [1], the MIC90 is given as > 20 µM.
With `CO[C@H]1/C=C/O[C@@]2(C)Oc3c(C)c(O)c4c(O)c(c(/C=N/N5CCN(C)CC5)c(O)c4c3C2=O)NC(=O)/C(C)=C\C=C\[C@H](C)[C@H](O)[C@@H](C)[C@@H](O)[C@@H](C)[C@H](OC(C)=O)[C@@H]1C` [Rifampicin], the MIC in test [2] worked out at 0.0077 µM (≈ 0.00634 µg/mL).
